In paper PMC11579512, “Deoxybouvardin-glucoside induces apoptosis in non-small cell lung cancer cells by targeting EGFR/MET and AKT signaling pathway” (EXCLI Journal, 2024):

Key:
Type in all cases: cell-based, human
HCC827 cells = assay: Soft agar anchorage-independent growth, HCC827; conditions: 2 weeks
Experimental: The anchorage-independent cell growth assay was performed in 6-well plates with dual agar layers containing 0.6 % agar (lower layer) and 0.3 % agar (upper layer) supplemented with BME, 2 mM L-glutamine, 5 μg/ml gentamicin, and 10 % FBS. After 2 weeks of incubation, the number of colonies was assessed using a microscope (Leica, Wetzlar, Germany), and the mean colony area was analyzed using i-Solution ^TM software (Vancouver, BC, Canada).

cyclin D1 = assay: Immunoblot cyclin D1 in HCC827 and HCC827GR cells; conditions: for cyclinD1 protein ratio: relative to DBG 0 nM = 1.00
Experimental: (§1) HaCaT cells were grown in DMEM, whereas HCC827 and HCC827GR cells were grown in RPMI 1640. All culture media were supplemented with FBS (10 %) and P/S (1 %), and the cells were grown at 37 °C in 5 % CO2.
(§2) Cells were lysed in RIPA buffer, and protein concentration was determined using a Bio-Rad DC Protein Assay kit (Bio-Rad, Hercules, CA, USA). Protein samples from the cell lysates were resolved by sodium dodecyl sulfate-polyacrylamide gel electrophoresis and then transferred onto polyvinylidene fluoride membranes. The membranes were blocked with 3 % or 5 % skim milk and then incubated at 4 °C overnight with the indicated primary antibodies, followed by the corresponding horseradish peroxidase-conjugated secondary antibodies at RT for 2 h. Protein bands were visualized using western blotting luminol reagent solution and ImageQuant LAS 500 (GE Healthcare, Uppsala, Sweden). The density of the bands was quantified using ImageJ software (NIH, Bethesda, MD, USA).

HCC827GR cells [1] = assay: Intracellular ROS (Muse Oxidative Stress Kit), HCC827GR; conditions: 48 h, control 16.69 %
Experimental: as §1
The levels of intracellular ROS were measured using a Muse™ Oxidative Stress Kit (MCH100111, Merck Millipore) in accordance with the manufacturer's instructions. The cells were incubated with a Muse™ Oxidative Stress Reagent working solution in the dark at 37 °C for 30 min. Intracellular ROS generation was measured using a Muse™ Cell Analyzer.

p-EGFR = assay: Immunoblot p-EGFR with NAC pretreatment, HCC827 and HCC827GR cells; conditions: for p-EGFR protein Ratio: control = 1.00
Experimental: as §1, §2

PARP = assay: Immunoblot PARP with NAC pretreatment, HCC827 and HCC827GR cells; conditions: for PARP protein Ratio: control = 1.00
Experimental: as §1, §2

HCC827GR cells [2] = assay: Annexin V/7-AAD apoptosis, HCC827GR; parameters: Early apoptosis / Total apopt / Dead / Live: unit not given here; conditions: for apoptotic cells (annexin V+): 48 h, background 0.92 %; for Late apoptosis/Dead / Early apoptosis / Total apopt / Dead / Live: HCC827GR
Experimental: as §1
Apoptosis was measured using a Muse™ Annexin V & Dead Cell Kit (MCH100105, Merck Millipore). The fluorescent signal was analyzed with a Muse™ Cell Analyzer.

## COc1ccc(C[C@H]2C(=O)N[C@@H](C)C(=O)N(C)[C@H]3Cc4ccc(cc4)Oc4cc(ccc4O[C@@H]4O[C@H](CO)[C@@H](O)[C@H](O)[C@H]4O)C[C@@H](C(=O)N[C@H](C)C(=O)N[C@@H](C)C(=O)N2C)N(C)C3=O)cc1 [DBG, deoxybouvardin glucoside]
HCC827 cells; DBG 3 nM
  colony number, Control %: 58.65%
  colony size, Control %: 78.77%
HCC827 cells; DBG 6 nM
  colony number, Control %: 34.62%
  colony size, Control %: 57.75%
HCC827 cells; DBG 12 nM
  colony number, Control %: 0.00%
  colony size, Control %: 0.00%
Cyclin D1; DBG 3, 6, 12 nM, 48 h
  level of cyclin D1: significantly decreased
Cyclin D1; HCC827, DBG 3 nM, DBG 0 nM 0.51
  cyclinD1 protein/actin: 0.23
Cyclin D1; HCC827, DBG 3 nM
  cyclinD1 protein ratio: 0.46
Cyclin D1; HCC827, DBG 6 nM, DBG 0 nM 0.51
  cyclinD1 protein/actin: 0.14
Cyclin D1; HCC827, DBG 6 nM
  cyclinD1 protein ratio: 0.27
Cyclin D1; HCC827, DBG 12 nM, DBG 0 nM 0.51
  cyclinD1 protein/actin: 0.09
Cyclin D1; HCC827, DBG 12 nM
  cyclinD1 protein ratio: 0.17
Cyclin D1; HCC827GR, DBG 3 nM, DBG 0 nM 0.73
  cyclinD1 protein/actin: 0.37
Cyclin D1; HCC827GR, DBG 3 nM
  cyclinD1 protein ratio: 0.51
Cyclin D1; HCC827GR, DBG 6 nM, DBG 0 nM 0.73
  cyclinD1 protein/actin: 0.33
Cyclin D1; HCC827GR, DBG 6 nM
  cyclinD1 protein ratio: 0.45
Cyclin D1; HCC827GR, DBG 12 nM, DBG 0 nM 0.73
  cyclinD1 protein/actin: 0.41
Cyclin D1; HCC827GR, DBG 12 nM
  cyclinD1 protein ratio: 0.57
HCC827GR cells [1]; DBG 3 nM
  ROS level: 36.89%
HCC827GR cells [1]; DBG 6 nM
  ROS level: 39.97%
HCC827GR cells [1]; DBG 12 nM
  ROS level: 47.92%
p-EGFR; HCC827, DBG 12 nM, control 0.90
  p-EGFR protein/actin: 0.25
p-EGFR; HCC827, DBG 12 nM
  p-EGFR protein Ratio: 0.27
p-EGFR; HCC827, NAC 4 mM + DBG 12 nM, control 0.90
  p-EGFR protein/actin: 0.27
p-EGFR; HCC827, NAC 4 mM + DBG 12 nM
  p-EGFR protein Ratio: 0.30
p-EGFR; HCC827GR, DBG 12 nM, control 0.93
  p-EGFR protein/actin: 0.40
p-EGFR; HCC827GR, DBG 12 nM
  p-EGFR protein Ratio: 0.43
p-EGFR; HCC827GR, NAC 4 mM + DBG 12 nM, control 0.93
  p-EGFR protein/actin: 0.30
p-EGFR; HCC827GR, NAC 4 mM + DBG 12 nM
  p-EGFR protein Ratio: 0.32
p-EGFR; NAC 4 mM pretreatment, DBG 48 h
  DBG-decreased phosphorylation of EGFR with NAC: did not change
PARP; HCC827, DBG 12 nM, control 0.96
  PARP protein/actin: 0.09
PARP; HCC827, DBG 12 nM
  PARP protein Ratio: 0.09
PARP; HCC827, NAC 4 mM + DBG 12 nM, control 0.96
  PARP protein/actin: 1.09
PARP; HCC827, NAC 4 mM + DBG 12 nM
  PARP protein Ratio: 1.14
PARP; HCC827GR, DBG 12 nM, control 0.99
  PARP protein/actin: 0.21
PARP; HCC827GR, DBG 12 nM
  PARP protein Ratio: 0.22
PARP; HCC827GR, NAC 4 mM + DBG 12 nM, control 0.99
  PARP protein/actin: 0.81
PARP; HCC827GR, NAC 4 mM + DBG 12 nM
  PARP protein Ratio: 0.82
HCC827GR cells [2]; DBG 3 nM
  apoptotic cells (annexin V+): 11.08%
HCC827GR cells [2]; DBG 6 nM
  apoptotic cells (annexin V+): 25.58%
HCC827GR cells [2]; DBG 12 nM
  apoptotic cells (annexin V+): 42.32%
HCC827GR cells [2]; DBG 3 nM, mean of 3 samples, untreated 0.23
  Late apoptosis/Dead: 0.23
HCC827GR cells [2]; DBG 3 nM, mean of 3 samples, untreated 0.68
  Early apoptosis: 10.85
HCC827GR cells [2]; DBG 3 nM, mean of 3 samples, untreated 0.92
  Total apopt: 11.08
HCC827GR cells [2]; DBG 3 nM, mean of 3 samples, untreated 5.53
  Dead: 0.05
HCC827GR cells [2]; DBG 3 nM, mean of 3 samples, untreated 93.55
  Live: 88.87
HCC827GR cells [2]; DBG 3 nM, replicate 1
  Dead: 0.05
  Early apoptosis: 9.50
  Late apoptosis/Dead: 0.15
  Live: 90.30
  Total apopt: 9.65
HCC827GR cells [2]; DBG 3 nM, replicate 2
  Dead: 0.05
  Early apoptosis: 10.80
  Late apoptosis/Dead: 0.25
  Live: 88.90
  Total apopt: 11.05
HCC827GR cells [2]; DBG 3 nM, replicate 3
  Dead: 0.05
  Early apoptosis: 12.25
  Late apoptosis/Dead: 0.30
  Live: 87.40
  Total apopt: 12.55
HCC827GR cells [2]; DBG 6 nM, mean of 3 samples, untreated 0.23
  Late apoptosis/Dead: 0.50
HCC827GR cells [2]; DBG 6 nM, mean of 3 samples, untreated 0.68
  Early apoptosis: 25.08
HCC827GR cells [2]; DBG 6 nM, mean of 3 samples, untreated 0.92
  Total apopt: 25.58
HCC827GR cells [2]; DBG 6 nM, mean of 3 samples, untreated 5.53
  Dead: 0.10
HCC827GR cells [2]; DBG 6 nM, mean of 3 samples, untreated 93.55
  Live: 74.32
HCC827GR cells [2]; DBG 6 nM, replicate 1
  Dead: 0.00
  Early apoptosis: 24.55
  Late apoptosis/Dead: 0.55
  Live: 74.90
  Total apopt: 25.10
HCC827GR cells [2]; DBG 6 nM, replicate 2
  Dead: 0.15
  Early apoptosis: 25.60
  Late apoptosis/Dead: 0.40
  Live: 73.85
  Total apopt: 26.00
HCC827GR cells [2]; DBG 6 nM, replicate 3
  Dead: 0.15
  Early apoptosis: 25.10
  Late apoptosis/Dead: 0.55
  Live: 74.20
  Total apopt: 25.65
HCC827GR cells [2]; DBG 12 nM, mean of 3 samples, untreated 0.23
  Late apoptosis/Dead: 10.45
HCC827GR cells [2]; DBG 12 nM, mean of 3 samples, untreated 0.68
  Early apoptosis: 31.87
HCC827GR cells [2]; DBG 12 nM, mean of 3 samples, untreated 0.92
  Total apopt: 42.32
HCC827GR cells [2]; DBG 12 nM, mean of 3 samples, untreated 5.53
  Dead: 0.13
HCC827GR cells [2]; DBG 12 nM, mean of 3 samples, untreated 93.55
  Live: 57.55
HCC827GR cells [2]; DBG 12 nM, replicate 1
  Dead: 0.15
  Early apoptosis: 31.85
  Late apoptosis/Dead: 10.85
  Live: 57.15
  Total apopt: 42.70
HCC827GR cells [2]; DBG 12 nM, replicate 2
  Dead: 0.15
  Early apoptosis: 31.65
  Late apoptosis/Dead: 10.50
  Live: 57.70
  Total apopt: 42.15
HCC827GR cells [2]; DBG 12 nM, replicate 3
  Dead: 0.10
  Early apoptosis: 32.10
  Late apoptosis/Dead: 10.00
  Live: 57.80
  Total apopt: 42.10
